“And” between values parts separate entries of the source, which are not always exact repeats. Equal entries are not always repeated.
Assays:
[1] = target: BdGUS (Bifidobacterium dentium, UniProt D2Q7B1); experiment: biochemical; type: binding
[2] = target: T1, HsGUS (human GUS) (Homo sapiens, UniProt P08236); experiment: GUS inhibition assay, hydrolysis of 4-methylumbelliferyl-β-glucuronide, HsGUS; type: biochemical; set-up: GUS activity (hydrolysis rate of MUG): unit not given here
T1 construct: HsGUS was prepared as described[37]; made in house
T1 sequence (P08236 23-651): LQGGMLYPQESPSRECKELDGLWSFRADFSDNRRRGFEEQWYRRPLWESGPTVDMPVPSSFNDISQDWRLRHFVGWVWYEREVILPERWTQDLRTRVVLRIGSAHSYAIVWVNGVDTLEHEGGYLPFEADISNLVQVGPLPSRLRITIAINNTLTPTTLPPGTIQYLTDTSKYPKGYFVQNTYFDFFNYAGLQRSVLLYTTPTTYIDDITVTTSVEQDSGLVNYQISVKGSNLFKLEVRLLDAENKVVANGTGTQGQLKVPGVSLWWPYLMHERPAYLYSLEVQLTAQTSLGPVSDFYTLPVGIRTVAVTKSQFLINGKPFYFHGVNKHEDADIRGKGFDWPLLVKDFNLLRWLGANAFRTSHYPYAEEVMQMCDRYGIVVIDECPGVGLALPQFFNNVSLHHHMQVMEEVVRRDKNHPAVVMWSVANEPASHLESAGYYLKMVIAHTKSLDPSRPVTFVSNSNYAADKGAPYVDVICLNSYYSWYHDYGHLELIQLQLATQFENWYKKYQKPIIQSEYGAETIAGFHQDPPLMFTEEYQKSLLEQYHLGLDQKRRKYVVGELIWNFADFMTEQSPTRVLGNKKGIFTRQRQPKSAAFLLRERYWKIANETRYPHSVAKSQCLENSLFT

[3] = BdGUS, Tris buffer (250 mM NaCl, 20 mM Tris, pH 8.0), 298 K

Chain of BdGUS (D2Q7B1 entry or part of it): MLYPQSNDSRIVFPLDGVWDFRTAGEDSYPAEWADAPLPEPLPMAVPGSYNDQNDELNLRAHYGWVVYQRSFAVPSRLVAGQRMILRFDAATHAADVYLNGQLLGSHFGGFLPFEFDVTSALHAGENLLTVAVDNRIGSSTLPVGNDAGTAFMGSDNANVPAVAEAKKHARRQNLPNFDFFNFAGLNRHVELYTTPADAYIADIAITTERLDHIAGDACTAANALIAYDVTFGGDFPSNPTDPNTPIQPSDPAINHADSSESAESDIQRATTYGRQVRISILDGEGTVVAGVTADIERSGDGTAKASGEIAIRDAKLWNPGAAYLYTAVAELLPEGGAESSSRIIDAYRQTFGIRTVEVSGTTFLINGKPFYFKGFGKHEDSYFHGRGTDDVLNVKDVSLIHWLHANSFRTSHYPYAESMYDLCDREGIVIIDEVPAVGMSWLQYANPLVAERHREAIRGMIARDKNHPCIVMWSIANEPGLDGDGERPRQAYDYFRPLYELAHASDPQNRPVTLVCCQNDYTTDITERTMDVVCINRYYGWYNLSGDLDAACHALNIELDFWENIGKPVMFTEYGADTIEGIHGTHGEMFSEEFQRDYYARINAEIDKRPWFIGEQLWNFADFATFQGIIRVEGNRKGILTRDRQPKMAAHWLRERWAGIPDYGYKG

In the case of `CCC[C@@H]1NC[C@@H](O)[C@H](O)[C@H]1C(=O)O` [Inhibitor 2, C6-propyl UIFG], the “ΔΔH1–2 (enthalpy penalty of 2 relative to 1)” value ([1]; BdGUS in Tris buffer) is reported as “+8.5 kcal mol^−1”, the “–TΔΔS1–2 (2 relative to 1)” value ([1]; BdGUS in Tris buffer) is reported as -6.2 kcal/mol and the “entropy contribution to binding” value ([1]; BdGUS in Tris buffer, sign (positive = favourable)) is reported as “+4.6 kcal mol^−1”. The Kd [1, 3] was 14.5 ± 3.55 µM, the ΔG [1, 3] was “–6.60 ± 0.15 kcal/mol” and the ΔH [1, 3] was “–1.97 ± 0.15 kcal/mol”. The “—TΔS” value [1, 3] was “–4.64 ± 0.30 kcal/mol”, the Ki ([2]; HsGUS, 50 mM sodium acetate pH 4.5, 37 °C) was 36.1 ± 7.5 µM and the “GUS activity (hydrolysis rate of MUG)” value ([2]; [Inhibitor 2] =2 μM, [MUG] 0.1 mM) was 948.853 and 951.385. The “GUS activity (hydrolysis rate of MUG)” value ([2]; [Inhibitor 2] =2 μM, [MUG] 0.2 mM) was 1632.03 and 1685.82, the “GUS activity (hydrolysis rate of MUG)” value ([2]; [Inhibitor 2] =2 μM, [MUG] 0.4 mM) was 2642.25 and 2523.4 and the “GUS activity (hydrolysis rate of MUG)” value ([2]; [Inhibitor 2] =2 μM, [MUG] 0.6 mM) was 3352.21 and 3311.67. For the same molecule, the “GUS activity (hydrolysis rate of MUG)” value ([2]; [Inhibitor 2] =2 μM, [MUG] 0.8 mM) was 3926.69 and 3841.33, the “GUS activity (hydrolysis rate of MUG)” value ([2]; [Inhibitor 2] =2 μM, [MUG] 1.2 mM) was 4682.68 and 4814.95 and the “GUS activity (hydrolysis rate of MUG)” value ([2]; [Inhibitor 2] =2 μM, [MUG] 1.6 mM) was 5075.17 and 5261.75. For the same molecule, the “GUS activity (hydrolysis rate of MUG)” value ([2]; [Inhibitor 2] =2 μM, [MUG] 2 mM) was 5616.94 and 5799.63, the “GUS activity (hydrolysis rate of MUG)” value ([2]; [Inhibitor 2] =5 μM, [MUG] 0.1 mM) was 870.401 and 901.046 and the “GUS activity (hydrolysis rate of MUG)” value ([2]; [Inhibitor 2] =5 μM, [MUG] 0.2 mM) was 1774.12 and 1609.49. For the same molecule, the “GUS activity (hydrolysis rate of MUG)” value ([2]; [Inhibitor 2] =5 μM, [MUG] 0.4 mM) was 2566.62 and 2497.87, the “GUS activity (hydrolysis rate of MUG)” value ([2]; [Inhibitor 2] =5 μM, [MUG] 0.6 mM) was 3244.91 and 3390.27 and the “GUS activity (hydrolysis rate of MUG)” value ([2]; [Inhibitor 2] =5 μM, [MUG] 0.8 mM) was 3688.45 and 3865.44. For the same molecule, the “GUS activity (hydrolysis rate of MUG)” value ([2]; [Inhibitor 2] =5 μM, [MUG] 1.2 mM) was 4481.74 and 4357.11, the “GUS activity (hydrolysis rate of MUG)” value ([2]; [Inhibitor 2] =5 μM, [MUG] 1.6 mM) was 5234.04 and 5031.9 and the “GUS activity (hydrolysis rate of MUG)” value ([2]; [Inhibitor 2] =5 μM, [MUG] 2 mM) was 5683.23 and 5771.06. For the same molecule, the “GUS activity (hydrolysis rate of MUG)” value ([2]; [Inhibitor 2] =10 μM, [MUG] 0.1 mM) was 788.919 and 835.551, the “GUS activity (hydrolysis rate of MUG)” value ([2]; [Inhibitor 2] =10 μM, [MUG] 0.2 mM) was 1388.11 and 1357.62 and the “GUS activity (hydrolysis rate of MUG)” value ([2]; [Inhibitor 2] =10 μM, [MUG] 0.4 mM) was 2139.7 and 2292.26. For the same molecule, the “GUS activity (hydrolysis rate of MUG)” value ([2]; [Inhibitor 2] =10 μM, [MUG] 0.6 mM) was 2815.06 and 3009.55, the “GUS activity (hydrolysis rate of MUG)” value ([2]; [Inhibitor 2] =10 μM, [MUG] 0.8 mM) was 3419.24 and 3416.94 and the “GUS activity (hydrolysis rate of MUG)” value ([2]; [Inhibitor 2] =10 μM, [MUG] 1.2 mM) was 4195.01 and 4091.63. The “GUS activity (hydrolysis rate of MUG)” value ([2]; [Inhibitor 2] =10 μM, [MUG] 1.6 mM) was 5141.39 and 4873.96, the “GUS activity (hydrolysis rate of MUG)” value ([2]; [Inhibitor 2] =10 μM, [MUG] 2 mM) was 5569.48 and 4956.18 and the “GUS activity (hydrolysis rate of MUG)” value ([2]; [Inhibitor 2] =20 μM, [MUG] 0.1 mM) was 633.046 and 650.421. For the same molecule, the “GUS activity (hydrolysis rate of MUG)” value ([2]; [Inhibitor 2] =20 μM, [MUG] 0.2 mM) was 1058.97 and 1051.89, the “GUS activity (hydrolysis rate of MUG)” value ([2]; [Inhibitor 2] =20 μM, [MUG] 0.4 mM) was 1746.1 and 1806.97 and the “GUS activity (hydrolysis rate of MUG)” value ([2]; [Inhibitor 2] =20 μM, [MUG] 0.6 mM) was 2323.32 and 2357.04. For the same molecule, the “GUS activity (hydrolysis rate of MUG)” value ([2]; [Inhibitor 2] =20 μM, [MUG] 0.8 mM) was 2744.58 and 2819.54, the “GUS activity (hydrolysis rate of MUG)” value ([2]; [Inhibitor 2] =20 μM, [MUG] 1.2 mM) was 3443.09 and 3077.07 and the “GUS activity (hydrolysis rate of MUG)” value ([2]; [Inhibitor 2] =20 μM, [MUG] 1.6 mM) was 3957.48 and 3836.46. The “GUS activity (hydrolysis rate of MUG)” value ([2]; [Inhibitor 2] =20 μM, [MUG] 2 mM) was 4613.38 and 4482.85, the “GUS activity (hydrolysis rate of MUG)” value ([2]; [Inhibitor 2] =40 μM, [MUG] 0.1 mM) was 425.121 and 430.469 and the “GUS activity (hydrolysis rate of MUG)” value ([2]; [Inhibitor 2] =40 μM, [MUG] 0.2 mM) was 709.381 and 742.235. For the same molecule, the “GUS activity (hydrolysis rate of MUG)” value ([2]; [Inhibitor 2] =40 μM, [MUG] 0.4 mM) was 1260.88 and 1281.33, the “GUS activity (hydrolysis rate of MUG)” value ([2]; [Inhibitor 2] =40 μM, [MUG] 0.6 mM) was 1728.03 and 1805.44 and the “GUS activity (hydrolysis rate of MUG)” value ([2]; [Inhibitor 2] =40 μM, [MUG] 0.8 mM) was 2092.2 and 2090.09. For the same molecule, the “GUS activity (hydrolysis rate of MUG)” value ([2]; [Inhibitor 2] =40 μM, [MUG] 1.2 mM) was 2609.86 and 2615.59, the “GUS activity (hydrolysis rate of MUG)” value ([2]; [Inhibitor 2] =40 μM, [MUG] 1.6 mM) was 3152.02 and 3056.96 and the “GUS activity (hydrolysis rate of MUG)” value ([2]; [Inhibitor 2] =40 μM, [MUG] 2 mM) was 3549.78 and 3510.91. For the same molecule, the “GUS activity (hydrolysis rate of MUG)” value ([2]; [Inhibitor 2] =75 μM, [MUG] 0.1 mM) was 269.697 and 248.688, the “GUS activity (hydrolysis rate of MUG)” value ([2]; [Inhibitor 2] =75 μM, [MUG] 0.2 mM) was 469.532 and 449.551 and the “GUS activity (hydrolysis rate of MUG)” value ([2]; [Inhibitor 2] =75 μM, [MUG] 0.4 mM) was 868.241 and 807.629. For the same molecule, the “GUS activity (hydrolysis rate of MUG)” value ([2]; [Inhibitor 2] =75 μM, [MUG] 0.6 mM) was 1207.03 and 1153.12.

From paper PMC7933434, “Entropy-driven binding of gut bacterial β-glucuronidase inhibitors ameliorates irinotecan-induced toxicity” (Communications Biology, 2021)
